Experimental data published in patent US20120003156A1, “METHODS FOR TREATING NEOPLASIA BY INHIBITING LACTATE DEHYDROGENASE AND/OR NICOTINAMIDE PHOSPHORIBOSYLTRANSFERASE” (The Johns Hopkins University, priority 2008, published 2012).

How the values were obtained:
LDHA [1] = molecular target: T1, LDHA (Homo sapiens, UniProt P00338); experiment: Screen of 1200 FDA approved compounds for an inhibitor of LDHA; assay type: biochemical
Source text: Reduction of LDHA by siRNA induced oxidative stress and cell death. To determine whether a small molecule inhibitor of LDHA could be used to modulate tumor metabolism, 1200 FDA approved compounds were screened to identify an inhibitor of LDHA. […] As such, a series of compounds generated by Vander Jagt and coworkers, who were specifically interested in targeting malarial LDH (pLDH) (Deck et al., 1998; Yu et al., 2001) was screened. […]; 2,3-dihydroxy-6-methyl-7-(phenylmethyl)-4-propylnaphthalene-1-carboxylic acid, Pubchem ID: 10498042) and 11e (E; 2,3-dihydroxy-6-methyl-7-(methyl)-4-propylnaphthalene-1-carboxylic acid, Pubchem ID: 10265351). […]; Yu et al., 2001). […]

[2] = test system: P493 human lymphoma B cells; experiment: Human P493 B cell lymphoma xenograft; assay type: in vivo, SCID mice; settings: treatment from 200 mm^3; daily IP 42 μg FX11 and/or 100 μg FK866; ten days
Method: The animal studies were performed according to the protocols approved by the Animal Care and Use Committee at Johns Hopkins University. In order to generate tumorigenesis study in xenograft model, 2.0×10^7 P493 human lymphoma B cells or 5×10^6 human pancreatic cancer cells were injected subcutaneously into male SCID mice (NCI) or athymic Hsd: RH-Foxn1nu mice (Harlan), respectively, as previously described (Feldmann et al., 2007; Gao et al., 2009; Gao et al., 2007). When the tumor volume reached 200 mm^3, groups of 5 mice were injected with control 2% DMSO or 42 μg FX11 and/or 100 μg FK866. The tumor volumes were measured using a digital caliper after 4, 7 and 10 days of treatment. Tumor volumes were calculated using the following formula: [length (mm)×width (mm)×width (mm)×0.52]. The entire experiment was repeated seven times.

LDHA [3] = molecular target: T1, LDHA; settings: cited from earlier work
[4] = molecular target: purified human liver LDHA (Homo sapiens, UniProt P00338); experiment: Determination of Ki and enzyme kinetics of LDHA
Method: The reaction velocity of purified human LDHA or GAPDH was determined by a decrease or increase in absorbance at 340 nm of NADH, respectively. […] The GADPH activity was assessed using the protocol described in Worthington Enzyme Manual: http://www.worthington-biochem.com/GAPD/assay.html with varying concentrations of NAD^+. Ki values were determined from double-reciprocal plots by linear regression analysis using SigmaPlot Enzyme Kinetic software.

P493 cells [5] = experiment: ROS measurement by DCFDA flow cytometry; assay type: cell-based, human
Method: The measurement of intracellular ROS production was measured by staining cells with 5-(and-6)-carboxy-2′,7′-dichlorodihydrofluorescein diacetate (carboxy-H2DCFDA; Molecular Probes) according to the manufacturer's instructions. 10^5 cells/ml were treated with 9 μM FX11 or FK866 for 24 hours. Stained cells were analyzed in FACScan flow cytometers (BD Bioscience).

[6] = test system: P493 human lymphoma B cells; experiment: Cell population growth, trypan blue live cell count; assay type: cell-based
Method: P493 human lymphoma B cells were maintained in RPMI 1640 with 10% fetal bovine serum (FBS) and 1% penicillin-streptomycin. P198 human pancreatic cancer cells; RCC4, RCC4-VHL human renal carcinoma cells; MCF-7 and MDA-MB-453 breast cancer cells were maintained in high glucose (4.5 mg/ml) DMEM with 10% FBS and 1% penicillin-streptomycin. Non-hypoxic cells (20% O2) were maintained at 37° C. in a 5% CO2, 95% in an air incubator. Hypoxic cells (1% O2) were maintained in a controlled atmosphere chamber (PLAS-LABS, Lansing, Mich.) with a gas mixture containing 1% O2, 5% CO2, and 94% N2 at 37° C. for the indicated time. Bright live cells were counted daily in a hemacytometer using trypan blue dye to exclude dead cells. All cells were grown at a concentration of 10^5 cells/ml. All drugs treatment began at day 0.
siRNAs targeting human LDHA (ON-TARGETplus SMARTpool) were purchased from Dharmacon Research Inc. Targeting sequences for LDHA were a pool of the following four target sequences: sequence 1, […]; sequence 2, […]; sequence 3, […]; sequence 4, […]. Accordingly, one of skill in the art would recognize the siRNA sequences corresponding to these targets. For P493 human lymphoma B cells, transfection of siRNAs was performed using an Amaxa Nucleotransfection device according to the manufacturer's instructions. Briefly, 2 μg siLDHA ON-TARGETplus SMARTpool or ON-TARGETplus Non-targeting Pool (Dharmacon Research Inc.) were transfected into 2×10^6 cells at 0 hours. […]. The remaining cells were harvested for immunoblot analysis. For P198 human pancreatic cancer cells, transfection of siRNAs was performed using X-tremeGENE siRNA Transfection Reagent (Roche) according to the manufacturer's instructions.

P493 cells [7] = experiment: Mitochondrial membrane potential by JC-1 flow cytometry; assay type: cell-based, human; settings: 9 μM FX11 or/and FK866, 24 hours
Source text: The lipophilic cation dye (5,5′,6,6′-tetrachloro-1,1′,3,3′-tetraethylbenzimidazolcarbocyanine iodide, JC-1) (Invitrogen) was used to detect the loss of the mitochondrial membrane potential. The negative charge established by the intact mitochondrial membrane potential lets the lipophilic dye stain the mitochondria bright red which emits in channel 2 (FL2). When the mitochondrial membrane potential collapses, JC-1 remains in the cytoplasm in a green fluorescent monomeric emission in channel 1 (FL1). JC-1 reversibly changes its color from green to orange as membrane potentials increase (over values of 80-100 mV). 10^5 cells/ml were treated with 9 μM FX11 or/and FK866 for 24 hours. Stained cells were analyzed in FACScan flow cytometers (BD Bioscience).

P493 cells [8] = experiment: ATP levels, luciferin-luciferase-based assay; assay type: cell-based, human; settings: 9 μM FX11 or 0.5 nM FK866, 20 hours
Method: P493 cells were treated with 9 μM FX11 or 0.5 nM FK866 for 20 hours and counted. ATP levels were determined by luciferin-luciferase-based assay (Promega) on aliquots containing equal number of cells according to standard protocol.

AMP kinase (AMPK) = experiment: Immunoblot of phospho-AMPK; assay type: cell-based, human; settings: 20 hours of exposure
[9] = Side effects, hematology and blood chemistry in treated animals
P493 cells [10] = experiment: Annexin V / 7-AAD cell death assay; assay type: cell-based, human; settings: NAC 20 mM at 24 hours post-transfection

Q: For CCCOc1ccccc1-c1nc2nn[nH]c2c(=O)[nH]1 [Zaprinast], which “LDHA inhibition in screen” value (LDHA [1]) is on record?
A: The value was “weak LDHA inhibitor”.

Q: For CCCc1c(O)c(O)c(C(=O)O)c2cc(C)c(C)cc12 [E, 2,3-dihydroxy-6-methyl-7-(methyl)-4-propylnaphthalene-1-carboxylic acid, reference compound], which “tumor growth of established P493 lymphoma xenografts” value [2] is on record?
A: The value was “no detectable anti-tumor activity”.

Q: And the LDHA inhibitory activity (LDHA [3])?
A: The LDHA inhibitory activity was “lower inhibitory activity versus FX11”.

Q: And the Ki [4]?
A: The Ki was > 90 µM.

Q: What about the “mode of inhibition of LDHA” value ([4]; NADH as substrate, Lineweaver-Burk plots) of the same compound?
A: The value was “competitive inhibitors”.

Q: Which ROS production (P493 cells [5]; 9 μM FX11 or FK866, 24 hours) does the source give for O=C(/C=C/c1cccnc1)NCCCCC1CCN(C(=O)c2ccccc2)CC1 [FK866, reference compound] here?
A: The ROS production was “increased ROS production”.

Q: What about the “proliferation of P493 cells” value ([6]; single agent) of the same compound?
A: The value was “diminished proliferation”.

Q: And the mitochondrial membrane potential (P493 cells [7])?
A: Its mitochondrial membrane potential is “decreased”.

Q: What about the ATP levels (P493 cells [8]) of the same compound?
A: The ATP levels was “decrease in ATP levels”.

Q: What about the “AMP kinase (AMPK) activation” value (AMP kinase (AMPK)) of the same compound?
A: Its value is “activation”.

Q: And the “tumor growth of established P493 lymphoma xenografts” value [2]?
A: Its value is “cytostatic outcome”.

Q: And the “kidney (BUN, creatinine) or liver (aspartate aminotransferase, alanine aminotransferase, alkaline phosphatase) toxicity by blood chemistries” value ([9]; doses that affected tumor growth in vivo)?
A: Its value is “did not reveal any evidence”.

Q: And the “hematology (cytopenia)” value ([9]; single agent, five animals studied)?
A: Its value is “mild thrombocytopenia”.

Q: What does the source list for CC(=O)N[C@@H](CS)C(=O)O [NAC, N-acetylcysteine, reference compound]?
A: effect on ROS induced by LDHA siRNA (P493 cells [5]; cells exposed to NAC): attenuated; effect on cell death of siRNA-transfected cells (P493 cells [10]): partially reduced cell death; effect on proliferation of P493 cells treated with either FX11 or FK866 ([6]; 20 mM NAC): partially rescue; effect on cell proliferation of siRNA-transfected cells ([6]; NAC 20 mM at 24 hours post-transfection): partial rescue of cell proliferation
